Values after ≈ are worked out from the molar mass of the structure shown. Values joined by “and” are separate entries in the source; they are usually repeats but may differ in a detail not shown here. Equal entries are not always repeated. Where two headings read alike, the source gives them in different places.
Columns and labels:
in vitro = details: human
HeLa Kyoto cells = assay: Relative viability (HOE/PI) in HCHT screening
Procedure: One advantage of HCHT imaging of cellular uptake compared to flow cytometry[38],[42],[43] is that it simultaneously gives information on toxicity and intracellular localization. […] Information on the intracellular localization of reporters can be quantified through segmentation of cellular compartments stained with specific markers.[52]
(§1) Uptake inhibition was measured by the automated HCHT imaging used already to elaborate on cytosolic delivery. For inhibitor screening, HK cells in multiwell plates were incubated with increasing concentrations of inhibitors, followed by fluorescent transporters 28, 31, and 32 at a constant concentration. […] If inhibitors are removed before the addition of transporters 28, 31, and 32, the method is referred to as “pre-incubation”. This is of interest to minimize exchange between the transporter and the inhibitor but is often problematic because dynamic covalent exchange between the inhibitor and cellular target can also be reversed and thus lost. The complementary “co-incubation” operates without inhibitor removal before the addition of transporters 28, 31, and 32.
Relative cell viability ( RV) for each condition in the presence of inhibitors was calculated […]
of the relative cell viability ( RVrel) to the concentration of inhibitors ( cinhibitor ) was plotted and fitted with Equation (S19) to retrieve the concentration causing 50% cell growth inhibition (RV50) value and the Hill coefficient ( n).

HK cells, transporter 28 = assay: HCHT imaging: inhibition of cytosolic delivery of CTO transporter 28; type: cell-based, Human; details: inhibitor 1 h; for IC15: read-out: MIC (concentration needed to reach 15% inhibition), transporter 28 5 μM
Procedure: as §1
(§2) 536/40 nm emission filter, and red with 531/40 nm excitation filter and 593/40 nm emission […]
(§3) 4.3. HCHT Inhibitor Screening
(§4) Pre-Incubation Method. As in ref. S1. HeLa Kyoto cells were seeded at 8 ×10^4 cells/mL in FluoroBrite DMEM + 10% FBS on μ-Plate 96-well Black ibiTreat sterile and incubated at 37 °C with 5% CO 2 for 24 h. Then, the medium was removed and cells were washed with PBS ([…]), fresh FluoroBrite DMEM medium (4 × 150 μL/well) was added into the cells using a plate washer (Biotek EL406®), keeping a final volume of 135 μL/well. Different concentrations of the inhibitors were prepared by serial dilution with 10% final concentration DMSO (10× in PBS). The solution of compounds 4 and 33 was prepared final DMSO concentration of 10% in each dilution (10× in PBS). These inhibitor solutions (10× final concentration), transporter 28 (10× in DMEM), transporters 31 and 32 (10× in PBS) a solution of HOE (100 μg/mL) and PI (10 μg/mL) in PBS were prepared freshly in a 96-well V-bottom plate before adding to the cells. The inhibitor solutions from the V-bottom plate were added to the cells (15 μL/well) in a final volume of 150 μL/well using an electronic multichannel pipette and cells were incubated for 1 h at 37 °C with 5% CO 2. After this incubation, cells were washed again with PBS and DMEM using the plate washer (in the way mentioned above), and transporter 28 , 31 or 32 from the V-bottom plate was added (15 μL/well) to the cells in a final volume of 150 μL/well. A final concentration of each transporter 28 , 31 and 32 was 5 μM, 10 μM and 0.5 μM, respectively, except for the control wells, where only PBS was added (15 μL/well). Cells treated with transporter 28 or 31 were incubated for 30 min, and cells treated with 32 were incubated for 2 h at 37 °C with 5% CO 2. After that, the cells were washed with PBS and DMEM using the plate washer, and the solution of Hoechst 33342 and PI from the V-bottom plate was added (15 μL/well) to the cells in a final volume of 150 μL/well. After 15 min of incubation at 37 °C with 5% CO 2, the cells were washed and kept in clean FluoroBrite
(§5) DMEM. For live cell imaging, samples were kept at 37 °C with 5% CO 2 during the microscope imaging. The distribution of fluorescence stained cells was analyzed without fixing using an […]

cathepsin L = cathepsin L (Homo sapiens, UniProt P07711); assay: Cathepsin L inhibition (preliminary, not shown); type: biochemical; details: 10 μM; preliminary results
Sequence of cathepsin L (P07711 114-333, species assumed): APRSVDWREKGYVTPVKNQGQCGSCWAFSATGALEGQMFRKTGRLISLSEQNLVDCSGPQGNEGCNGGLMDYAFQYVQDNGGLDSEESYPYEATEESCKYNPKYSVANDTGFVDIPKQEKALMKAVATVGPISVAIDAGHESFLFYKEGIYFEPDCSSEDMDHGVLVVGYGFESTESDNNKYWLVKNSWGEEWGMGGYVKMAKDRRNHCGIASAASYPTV

trypsin = assay: Trypsin inhibition (preliminary, not shown); type: biochemical; details: 10 μM; preliminary results, not shown
cathepsin B = cathepsin B (Homo sapiens, UniProt P07858); assay: Cathepsin B inhibition (preliminary, not shown); type: biochemical; details: 10 μM; preliminary results
HK cells, transporter 32 = test system: HK cells, transporter 32; design: method as in PMID 34173696; key to inhibition of OPS 32 uptake (heatmap): –: −: inactive; ++: qualitative inhibition of SC2 uptake; details: cited from earlier work
HK cells, transporter 31 = assay: HCHT imaging: inhibition of cytosolic delivery of ETP transporter 31; type: cell-based, Human; details: inhibitor 1 h; for IC50 / IC15: Homo sapiens; for IC50: read-out: IC50 (concentration needed to reach 50% inhibition), transporter 31 10 μM; for IC15: read-out: MIC (concentration needed to reach 15% inhibition), transporter 31 10 μM; for MIC (concentration needed to reach 15% inhibition): transporter 31 10 μM
Procedure: as §1, §2, §3, §4, §5

[1] = Dynamic covalent ring opening with thiol 10, 1H NMR kinetics; type: physicochemical; details: pD 2.7
Procedure: The dynamic covalent opening of CTO 3 with thiols yields product 9 with a disulfide and a sulfinate (Figure 3B). Consistent with short chalcogen bonds found in silico, the opening of CTO 3 was instantaneous on an NMR timescale with most thiols. To decelerate ring opening, bulky thiols were considered in combination with lowered pH to deactivate the nucleophile. With N-Ac-D-penicillamine 10, the opening of 5 mM CTO 3 in phosphate buffer/DMSO-d6 9:1 was still immediate at pD 6.7 but became detectable in ^1H NMR spectroscopy kinetics under more acidic conditions. The ring-opening rate constants k^O were estimated by fitting the initial velocities to second-order kinetics. Only lower bound rates were approximated from the earliest determined substrate conversions when reactions were still too fast despite the unfavorable conditions. At pD 5.4, dynamic covalent ring opening of CTO 3 with equimolar tertiary thiol 10 occurred with k^O > 0.49 M^–1 s^–1 and equilibrated at K = 6.0 × 10^3 M^–1 (Table 1, entry 1, Figures S4 and S5). At pD 2.7, further deceleration to k^O = 0.10 M^–1 s^–1 shifted the equilibrium to K = 500 M^–1 (Table 1, entry 2, Figures S6 and S7). […] At equilibrium, the concentration of thiol 10 further decreased slowly due to oxidation into the homodimer (Figure 3C, diamonds).
Equilibrium constants for reactions with two reactants A and B and a product C are […]
3.1.1. Dynamic Covalent Ring Opening with Thiols
General procedure A (at 5 mM): To a solution of deuterated sodium phosphate (200 mM in D 2O, pD 2.7 or 5.4, 180 mM final concentration), a stock solution of substrate (0.10 M in DMSO-d6, 5.0 mM final concentration) was added and stirred. Then a stock solution of 10 (0.10 M in DMSO- d6, 5.0 mM final concentration) was added and vigorously stirred at room temperature. The solution was transferred immediately to an NMR tube and NMR data were recorded repeatedly. The concentration of the substrate or thiol at each time plot was calculated by comparing the integrals of the peaks indicated with arrows in the figures, and plotted. The data points were fitted to obtain k1 with the Equation (S6) or (S7) using Graphpad Prism.
General procedure B (at 2 mM): To a solution of deuterated sodium phosphate (200 mM in D 2O, pD 2.7 or 5.4, 180 mM final concentration), DMSO- d6 (10% DMSO- d6 in the reaction mixture) and a stock solution of substrate (0.10 M in DMSO- d6, 2.0 mM final concentration) were added and stirred. Then a stock solution of 10 (0.10 M in DMSO- d6, 2.0 mM final concentration) was added and vigorously stirred at room temperature. The solution was transferred immediately to an NMR tube and NMR data were recorded repeatedly. The concentration of the substrate or thiol at each time plot was calculated by comparing the integrals of the peaks indicated with arrows in the figures, and plotted. The data points were fitted to obtain k1 with the Equation (S6) or (S7) using Graphpad Prism.
General procedure C (for thiosulfinates): To a solution of deuterated sodium phosphate (200 mM in D 2O, pD 5.4, 170 mM final concentration), a stock solution of substrate (0.10 M in DMSO- d6, 5.0 mM final concentration) was added and stirred. Then a stock solution of 10 (0.10 M in DMSO- d6, 10 mM final concentration) was added and vigorously stirred at room […]
data points were fitted to obtain k1 with the Equation (S14) or (S16) using Graphpad Prism. […]
3.1.2. Dependence of Ring Opening on Proticity
A mixture of deuterated phosphoric acid and NaOD (30% in D 2O), which gave pD 2.7 in D2O, was used as buffer in all solvent mixtures. To a solution of deuterated sodium phosphate (20 mM final concentration) in a mixture of D 2O and DMSO- d6 (540 μL, final D 2O content: […]
concentration) was added and stirred. Then a stock solution of 10 (0.10 M in DMSO- d6, 5.0 mM final concentration) was added and vigorously stirred at room temperature. The solution was transferred immediately to an NMR tube and 1H NMR data were recorded repeatedly. […]

[2] = Homo sapiens, 1 h, pre-incubation (P)
[3] = Homo sapiens, read-out: IC50 (concentration needed to reach 50% inhibition), transporter 28 5 μM, pre-incubation (P)
[4] = transporter 28 5 μM, pre-incubation (P)
[5] = with transporter 28, co-incubation (C)
[6] = Homo sapiens, 1 h, read-out: IC50 (concentration needed to reach 50% inhibition), transporter 28 5 μM, co-incubation (C)
[7] = Homo sapiens, 1 h, co-incubation (C)
[8] = transporter 28 5 μM, co-incubation (C)

SMILES: CC(C)(C)[Si](C)(C)O[C@H]1CS(=O)(=O)SC[C@H]1OC(=O)NCCNC(=O)CC(O)(CC(=O)NCCNC(=O)O[C@H]1CSS(=O)(=O)C[C@H]1O[Si](C)(C)C(C)(C)C)C(=O)NCCNC(=O)O[C@@H]1CSS(=O)(=O)C[C@@H]1O[Si](C)(C)C(C)(C)C (some centres unmarked) [Compound 42]
- viability at 7 h, 10 µM (in vitro): 107%
- RV50 (concentration needed to lower relative viability by 50%) (HeLa Kyoto cells; with transporter 28, pre-incubation (P)): 22 ± 3 µM and 22 µM
- IC15 (HK cells, transporter 28; [2]): 1.8 µM
- IC50 (HK cells, transporter 28; [3]): 5.1 ± 0.4 µM
- IC50 (HK cells, transporter 28; read-out: IC50 (concentration needed to reach 50% inhibition), transporter 28 5 μM, pre-incubation (P)): 5 µM
- MIC (concentration needed to reach 15% inhibition) (HK cells, transporter 28; [4]): 2 µM (≈ 2.58 µg/mL)

SMILES: O=C(NCCCCCCNC(=O)O[C@H]1CSS(=O)(=O)C[C@H]1O)O[C@H]1CSS(=O)(=O)C[C@H]1O [Compound 41]
- viability at 7 h, 5 µM (in vitro): 100%
- RV50 (concentration needed to lower relative viability by 50%) (HeLa Kyoto cells; [5]): >50 µM
- IC50 (HK cells, transporter 28; [6]): 8 µM
- IC15 (HK cells, transporter 28; [7]): 1 µM
- MIC (concentration needed to reach 15% inhibition) (HK cells, transporter 28; [8]): 1 µM

SMILES: CC(C)(C)[Si](C)(C)OC1CS(=O)(=O)SCC1OC(=O)NCCCCCCNC(=O)OC1CSS(=O)(=O)CC1O[Si](C)(C)C(C)(C)C (centres unmarked) [Compound 4]
- viability at 7 h, 10 µM (in vitro): 103%
- inhibition of cathepsin L (in words) (cathepsin L): neither cathepsin L nor B
- RV50 (concentration needed to lower relative viability by 50%) (HeLa Kyoto cells; [5]): >5 µM
- IC50 (HK cells, transporter 28; [6]): 16 ± 7 µM
- IC15 (HK cells, transporter 28; [7]): 0.3 µM
- IC50 (HK cells, transporter 28; read-out: IC50 (concentration needed to reach 50% inhibition), transporter 28 5 μM, co-incubation (C)): ~15 µM
- inhibition of trypsin (trypsin): > 80%
- inhibition of cathepsin B (in words) (cathepsin B): neither cathepsin L nor B

SMILES: O=C(O)Cn1[se]c2ccccc2c1=O [Compound 45, reference compound]
- viability at 7 h, 50 µM (in vitro): 81%
- IC15 (HK cells, transporter 28; [2]): 1.2 µM
- IC50 (HK cells, transporter 28; [3]): 8 µM
- MIC (concentration needed to reach 15% inhibition) (HK cells, transporter 28; [4]): 1 µM (≈ 0.256 µg/mL)
- inhibition of OPS 32 uptake (heatmap) (HK cells, transporter 32; pre-incubation conditions): –
- IC50 (HK cells, transporter 32; read-out: IC50 (concentration needed to reach 50% inhibition), transporter 32 0.5 or 1 μM, pre-incubation (P)): > 100 µM
- MIC (concentration needed to reach 15% inhibition) (HK cells, transporter 32; transporter 32 0.5 or 1 μM, pre-incubation (P)): >100 µM
- IC50 (HK cells, transporter 31; 1 h, co-incubation (C)): 8 µM
- IC15 (HK cells, transporter 31; 1 h, co-incubation (C)): 2.2 µM
- IC15 (HK cells, transporter 31; 1 h, pre-incubation (P)): < 1 µM
- IC50 (HK cells, transporter 31; pre-incubation (P)): 10 µM
- MIC (concentration needed to reach 15% inhibition) (HK cells, transporter 31; co-incubation (C)): 2 µM
- MIC (concentration needed to reach 15% inhibition) (HK cells, transporter 31; pre-incubation (P)): <1 µM

SMILES: O=C(NCCCCCCNC(=O)O[C@H]1CSS(=O)(=O)C[C@H]1OCc1ccccc1)O[C@H]1CSS(=O)(=O)C[C@H]1OCc1ccccc1 [Compound 33]
- viability at 7 h, 10 µM (in vitro): 107%
- RV50 (concentration needed to lower relative viability by 50%) (HeLa Kyoto cells; [5]): >5 µM
- IC50 (HK cells, transporter 28; [6]): > 5 µM
- IC15 (HK cells, transporter 28; [7]): 1.3 µM
- MIC (concentration needed to reach 15% inhibition) (HK cells, transporter 28; [8]): 1 µM

SMILES: CC1(C)O[C@H]2CSS(=O)(=O)C[C@H]2O1 [Compound 13]
- viability at 7 h, 5 µM (in vitro): 125 ± 5%
- RV50 (concentration needed to lower relative viability by 50%) (HeLa Kyoto cells; with transporter 31, co-incubation (C)): 29 ± 6 µM
- k^O, rate constant of ring opening (or equivalent for acyclic controls) ([1]; equimolar 10, rt, 90% D2O, Na+ phosphate 180 mM, substrate 2 mM): 2.3 M^–1 s^–1
- krel^O, rate constant of ring opening relative to 3 ([1]; 90% D2O, 2 mM): 23
- ring-opening rate relative to acyclic control 14 (fold) ([1]; with thiol 10, 2 mM): about 4 ×
- IC50 (HK cells, transporter 31; 1 h, co-incubation (C)): > 10 µM
- IC15 (HK cells, transporter 31; 1 h, co-incubation (C)): > 10 µM

Source: paper PMC9088311, “Cyclic Thiosulfonates for Thiol-Mediated Uptake: Cascade Exchangers, Transporters, Inhibitors” (JACS Au, 2022)
